# Measured values: article PMC7316778 (Nature Communications, 2020)
# Several values for one entry are separate records, joined by “and”; a condition that tells them apart may be missing. Equal values may be shown once. Read-outs that look alike come from different tables or passages of the source.
# Assays:
# ERN2 = ERN2 (Homo sapiens, UniProt Q76MJ5); assay: SelectScreen kinase assay
# Experimental: (§1) Selectivity profiling assays were performed by the Invitrogen SelectScreen™ Services. […] The concentration of ATP was selected to be equal to the KM, unless indicated otherwise.
# SRC = SRC (Homo sapiens, UniProt P12931); assay: SelectScreen kinase assay
# Experimental: as §1
# PLK1 = PLK1 (Homo sapiens, UniProt P53350); assay: SelectScreen kinase assay
# Experimental: as §1
# FGFR4 = FGFR4 (Homo sapiens, UniProt P22455); assay: SelectScreen kinase assay
# Experimental: as §1
# PRKCQ (PKC theta) = PRKCQ (PKC theta) (Homo sapiens, UniProt Q04759); assay: SelectScreen kinase assay; conditions: 1 h, 1 μM WEL028, 1 h preincubation
# Experimental: as §1
# CSNK1G1 (CK1 gamma 1) = CSNK1G1 (CK1 gamma 1) (Homo sapiens, UniProt Q9HCP0); assay: SelectScreen kinase assay; conditions: for Inhibition at 1 µM (%): CSNK1G1 (CK1 gamma 1), ZLYTE, ATP Km app
# Experimental: as §1
# MAP3K10 (MLK2) = MAP3K10 (MLK2) (Homo sapiens, UniProt Q02779); assay: SelectScreen kinase assay
# Experimental: as §1
# ADRBK1 (GRK2) = target: T1, ADRBK1 (GRK2) (Homo sapiens, UniProt P25098); assay: SelectScreen kinase assay; conditions: for Inhibition at 1 µM (%): ADRBK1 (GRK2), ZLYTE, ATP Km app
# T1 sequence (P25098 1-689): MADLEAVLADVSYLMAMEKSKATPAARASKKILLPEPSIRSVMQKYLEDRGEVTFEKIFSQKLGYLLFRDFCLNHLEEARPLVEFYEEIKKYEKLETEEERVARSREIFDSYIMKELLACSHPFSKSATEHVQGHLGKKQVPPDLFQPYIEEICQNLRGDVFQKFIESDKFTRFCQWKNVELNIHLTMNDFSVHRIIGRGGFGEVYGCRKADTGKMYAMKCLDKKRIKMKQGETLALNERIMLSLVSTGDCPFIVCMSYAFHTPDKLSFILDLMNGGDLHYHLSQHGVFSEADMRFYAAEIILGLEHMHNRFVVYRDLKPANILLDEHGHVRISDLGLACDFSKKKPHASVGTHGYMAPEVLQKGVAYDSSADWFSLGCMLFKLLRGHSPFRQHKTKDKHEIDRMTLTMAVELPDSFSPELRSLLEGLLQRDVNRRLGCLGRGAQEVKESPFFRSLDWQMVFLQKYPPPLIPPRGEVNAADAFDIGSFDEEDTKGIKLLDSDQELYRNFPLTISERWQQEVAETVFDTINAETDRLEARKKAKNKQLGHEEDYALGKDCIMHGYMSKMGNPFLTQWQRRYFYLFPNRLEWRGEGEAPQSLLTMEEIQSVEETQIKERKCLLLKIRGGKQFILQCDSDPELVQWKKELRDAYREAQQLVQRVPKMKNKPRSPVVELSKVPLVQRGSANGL
# Experimental: as §1
# SLK = SLK (Homo sapiens, UniProt Q9H2G2); assay: SelectScreen kinase assay
# Experimental: as §1
# AAK1 = AAK1 (Homo sapiens, UniProt Q2M2I8); assay: SelectScreen kinase assay
# Experimental: as §1
# ROCK1 = ROCK1 (Homo sapiens, UniProt Q13464); assay: SelectScreen kinase assay
# Experimental: as §1
# CAMK1G (CAMKI gamma) = CAMK1G (CAMKI gamma) (Homo sapiens, UniProt Q96NX5); assay: SelectScreen kinase assay; conditions: for Inhibition at 1 µM (%): CAMK1G (CAMKI gamma), ZLYTE, ATP Km app
# Experimental: as §1
# EPHA8 = EPHA8 (Homo sapiens, UniProt P29322); assay: SelectScreen kinase assay
# Experimental: as §1
# GRK1 = target: T2, GRK1 (Homo sapiens, UniProt Q15835); assay: SelectScreen kinase assay
# T2 sequence (Q15835 1-563): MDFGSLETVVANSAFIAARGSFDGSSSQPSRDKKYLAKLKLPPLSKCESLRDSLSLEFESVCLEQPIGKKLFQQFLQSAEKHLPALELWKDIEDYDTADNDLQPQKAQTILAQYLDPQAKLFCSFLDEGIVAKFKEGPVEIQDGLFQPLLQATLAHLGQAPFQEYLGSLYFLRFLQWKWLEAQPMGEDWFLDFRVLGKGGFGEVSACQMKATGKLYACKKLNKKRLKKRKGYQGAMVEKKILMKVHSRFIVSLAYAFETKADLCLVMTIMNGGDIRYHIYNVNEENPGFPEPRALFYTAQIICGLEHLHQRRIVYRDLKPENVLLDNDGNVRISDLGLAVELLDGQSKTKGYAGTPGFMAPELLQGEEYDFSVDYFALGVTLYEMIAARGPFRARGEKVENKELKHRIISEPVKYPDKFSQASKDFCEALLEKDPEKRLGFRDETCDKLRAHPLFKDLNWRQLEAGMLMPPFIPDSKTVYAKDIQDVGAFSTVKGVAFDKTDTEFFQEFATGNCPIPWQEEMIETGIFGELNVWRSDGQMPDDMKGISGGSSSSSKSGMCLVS
# Experimental: as §1
# [1] = target: PIK3CB/PIK3R2 (p110 beta/p85 beta) (Homo sapiens, UniProt P42338); assay: SelectScreen kinase assay
# Experimental: as §1
# [2] = system: FES^S700C HL-60 neutrophils; assay: Neutrophil oxidative burst assay (NBT); assay type: cell-based, human
# [3] = read-out: Inhibition at 1 µM (%)
# [4] = 1 µM, ZLYTE, ATP Km app, listed as WEL028, 1 µM
# [5] = 1 h, 1 μM WEL028, 1 h preincubation
# Sequence of AAK1 (Q2M2I8 whole entry): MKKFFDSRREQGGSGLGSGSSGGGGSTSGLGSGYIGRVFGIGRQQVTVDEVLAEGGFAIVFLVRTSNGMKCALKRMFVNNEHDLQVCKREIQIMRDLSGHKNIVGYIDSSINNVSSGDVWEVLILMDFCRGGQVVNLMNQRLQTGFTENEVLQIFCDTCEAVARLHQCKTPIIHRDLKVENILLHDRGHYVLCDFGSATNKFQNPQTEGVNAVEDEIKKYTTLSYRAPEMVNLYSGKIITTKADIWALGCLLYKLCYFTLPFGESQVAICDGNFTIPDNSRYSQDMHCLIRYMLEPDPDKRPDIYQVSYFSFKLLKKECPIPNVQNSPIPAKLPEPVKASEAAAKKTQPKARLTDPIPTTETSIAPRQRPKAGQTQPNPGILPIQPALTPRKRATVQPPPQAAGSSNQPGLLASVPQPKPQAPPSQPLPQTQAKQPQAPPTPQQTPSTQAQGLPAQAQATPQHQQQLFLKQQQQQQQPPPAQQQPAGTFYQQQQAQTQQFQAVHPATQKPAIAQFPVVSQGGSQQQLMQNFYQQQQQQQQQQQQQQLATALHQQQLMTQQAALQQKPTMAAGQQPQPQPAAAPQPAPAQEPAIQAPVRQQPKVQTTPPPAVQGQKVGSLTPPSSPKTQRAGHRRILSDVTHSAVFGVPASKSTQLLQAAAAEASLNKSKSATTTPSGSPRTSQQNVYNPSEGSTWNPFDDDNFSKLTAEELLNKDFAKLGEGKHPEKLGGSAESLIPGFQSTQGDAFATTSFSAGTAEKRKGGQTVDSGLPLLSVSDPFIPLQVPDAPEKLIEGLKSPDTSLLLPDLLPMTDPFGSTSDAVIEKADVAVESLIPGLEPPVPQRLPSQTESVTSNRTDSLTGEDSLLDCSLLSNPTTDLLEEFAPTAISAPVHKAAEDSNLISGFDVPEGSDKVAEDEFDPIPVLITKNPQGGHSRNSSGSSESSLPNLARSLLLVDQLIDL
# Sequence of MAP3K10 (MLK2) (Q02779 whole entry): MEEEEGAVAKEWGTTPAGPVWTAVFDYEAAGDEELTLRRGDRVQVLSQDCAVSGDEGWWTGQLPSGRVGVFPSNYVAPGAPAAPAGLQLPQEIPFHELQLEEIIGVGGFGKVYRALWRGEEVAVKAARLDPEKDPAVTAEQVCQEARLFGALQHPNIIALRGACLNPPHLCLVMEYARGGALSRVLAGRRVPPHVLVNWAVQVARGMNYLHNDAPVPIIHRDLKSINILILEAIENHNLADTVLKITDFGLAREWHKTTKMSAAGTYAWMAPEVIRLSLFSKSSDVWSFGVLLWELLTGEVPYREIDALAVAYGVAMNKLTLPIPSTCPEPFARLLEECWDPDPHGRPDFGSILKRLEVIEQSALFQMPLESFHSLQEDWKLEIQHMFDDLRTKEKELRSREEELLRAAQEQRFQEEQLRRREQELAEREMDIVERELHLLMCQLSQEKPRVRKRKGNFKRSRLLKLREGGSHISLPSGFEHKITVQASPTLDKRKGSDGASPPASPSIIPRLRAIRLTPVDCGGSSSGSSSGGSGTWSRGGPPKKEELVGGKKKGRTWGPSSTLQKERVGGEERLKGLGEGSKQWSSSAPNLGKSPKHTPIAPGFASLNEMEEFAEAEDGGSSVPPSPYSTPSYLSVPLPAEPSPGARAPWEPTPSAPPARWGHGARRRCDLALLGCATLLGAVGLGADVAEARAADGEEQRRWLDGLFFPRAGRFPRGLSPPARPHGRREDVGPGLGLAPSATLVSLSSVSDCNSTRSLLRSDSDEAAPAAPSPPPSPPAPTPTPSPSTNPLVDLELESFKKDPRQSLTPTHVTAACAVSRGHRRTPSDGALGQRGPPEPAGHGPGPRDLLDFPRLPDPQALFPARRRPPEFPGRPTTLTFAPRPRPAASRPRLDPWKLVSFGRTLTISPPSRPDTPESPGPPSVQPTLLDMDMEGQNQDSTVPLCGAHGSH
# Sequence of PIK3CB/PIK3R2 (p110 beta/p85 beta) (P42338 whole entry): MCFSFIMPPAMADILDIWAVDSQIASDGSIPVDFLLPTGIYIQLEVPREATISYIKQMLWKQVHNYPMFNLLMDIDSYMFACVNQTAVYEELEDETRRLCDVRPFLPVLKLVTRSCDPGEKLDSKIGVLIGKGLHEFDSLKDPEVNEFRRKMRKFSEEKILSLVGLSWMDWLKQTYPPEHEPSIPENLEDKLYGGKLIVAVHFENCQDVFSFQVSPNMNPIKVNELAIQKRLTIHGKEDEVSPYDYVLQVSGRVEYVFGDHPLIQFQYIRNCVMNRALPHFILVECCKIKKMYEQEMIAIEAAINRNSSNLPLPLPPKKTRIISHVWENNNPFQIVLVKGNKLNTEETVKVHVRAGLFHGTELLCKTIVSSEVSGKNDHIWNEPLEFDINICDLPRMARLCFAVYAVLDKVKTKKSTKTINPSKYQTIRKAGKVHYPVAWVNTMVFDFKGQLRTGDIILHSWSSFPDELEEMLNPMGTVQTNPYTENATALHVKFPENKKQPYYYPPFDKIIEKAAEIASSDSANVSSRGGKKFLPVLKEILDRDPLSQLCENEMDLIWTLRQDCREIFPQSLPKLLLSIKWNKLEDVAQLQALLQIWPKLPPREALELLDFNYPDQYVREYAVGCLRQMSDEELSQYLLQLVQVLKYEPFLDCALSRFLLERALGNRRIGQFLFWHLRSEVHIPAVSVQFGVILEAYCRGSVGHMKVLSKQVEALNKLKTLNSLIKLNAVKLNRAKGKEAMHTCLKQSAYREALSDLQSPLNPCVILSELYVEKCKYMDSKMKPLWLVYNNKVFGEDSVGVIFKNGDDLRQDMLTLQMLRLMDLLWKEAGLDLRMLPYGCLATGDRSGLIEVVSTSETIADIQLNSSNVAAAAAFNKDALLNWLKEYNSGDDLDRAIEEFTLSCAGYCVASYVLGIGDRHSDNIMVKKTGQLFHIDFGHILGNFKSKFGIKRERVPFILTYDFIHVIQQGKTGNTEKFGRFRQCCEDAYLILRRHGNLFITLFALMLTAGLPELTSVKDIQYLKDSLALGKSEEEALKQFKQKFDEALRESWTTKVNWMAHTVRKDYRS
# Sequence of PIK3CB/PIK3R2 (p110 beta/p85 beta) (O00459 whole entry partner): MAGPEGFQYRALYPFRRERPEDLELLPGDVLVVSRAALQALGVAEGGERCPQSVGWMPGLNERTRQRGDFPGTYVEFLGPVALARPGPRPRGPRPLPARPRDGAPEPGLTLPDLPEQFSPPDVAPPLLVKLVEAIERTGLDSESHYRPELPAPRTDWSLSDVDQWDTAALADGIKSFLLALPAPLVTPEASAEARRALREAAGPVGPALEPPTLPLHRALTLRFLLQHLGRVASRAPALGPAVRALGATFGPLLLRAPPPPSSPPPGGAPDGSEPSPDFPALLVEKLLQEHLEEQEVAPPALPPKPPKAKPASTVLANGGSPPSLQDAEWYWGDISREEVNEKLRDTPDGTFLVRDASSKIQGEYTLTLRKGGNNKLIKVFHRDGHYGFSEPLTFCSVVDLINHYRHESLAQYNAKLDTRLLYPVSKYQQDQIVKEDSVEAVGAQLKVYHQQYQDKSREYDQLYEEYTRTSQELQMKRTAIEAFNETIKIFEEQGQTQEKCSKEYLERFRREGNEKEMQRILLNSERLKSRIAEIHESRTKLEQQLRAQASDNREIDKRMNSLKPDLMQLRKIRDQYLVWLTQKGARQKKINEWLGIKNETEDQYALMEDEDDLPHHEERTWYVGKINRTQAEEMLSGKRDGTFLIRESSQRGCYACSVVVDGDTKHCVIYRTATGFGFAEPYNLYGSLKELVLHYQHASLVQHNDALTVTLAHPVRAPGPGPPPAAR
# Sequence of PLK1 (P53350 whole entry): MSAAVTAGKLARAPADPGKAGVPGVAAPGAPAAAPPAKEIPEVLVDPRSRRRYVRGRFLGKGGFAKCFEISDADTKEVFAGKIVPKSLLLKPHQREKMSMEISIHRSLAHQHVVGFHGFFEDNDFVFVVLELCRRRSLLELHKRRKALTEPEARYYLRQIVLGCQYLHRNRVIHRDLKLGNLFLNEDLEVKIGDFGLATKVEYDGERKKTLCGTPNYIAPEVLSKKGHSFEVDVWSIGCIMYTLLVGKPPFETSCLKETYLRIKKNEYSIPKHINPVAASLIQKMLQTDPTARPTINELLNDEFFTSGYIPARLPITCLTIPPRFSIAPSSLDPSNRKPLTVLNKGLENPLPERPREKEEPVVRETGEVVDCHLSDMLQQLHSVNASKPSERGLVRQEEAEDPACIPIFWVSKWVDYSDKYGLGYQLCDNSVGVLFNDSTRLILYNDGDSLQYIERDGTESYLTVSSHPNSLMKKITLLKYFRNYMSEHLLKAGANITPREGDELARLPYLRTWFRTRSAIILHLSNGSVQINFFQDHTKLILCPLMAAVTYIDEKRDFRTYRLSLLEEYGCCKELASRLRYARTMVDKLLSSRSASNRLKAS
# Sequence of FGFR4 (P22455 22-802): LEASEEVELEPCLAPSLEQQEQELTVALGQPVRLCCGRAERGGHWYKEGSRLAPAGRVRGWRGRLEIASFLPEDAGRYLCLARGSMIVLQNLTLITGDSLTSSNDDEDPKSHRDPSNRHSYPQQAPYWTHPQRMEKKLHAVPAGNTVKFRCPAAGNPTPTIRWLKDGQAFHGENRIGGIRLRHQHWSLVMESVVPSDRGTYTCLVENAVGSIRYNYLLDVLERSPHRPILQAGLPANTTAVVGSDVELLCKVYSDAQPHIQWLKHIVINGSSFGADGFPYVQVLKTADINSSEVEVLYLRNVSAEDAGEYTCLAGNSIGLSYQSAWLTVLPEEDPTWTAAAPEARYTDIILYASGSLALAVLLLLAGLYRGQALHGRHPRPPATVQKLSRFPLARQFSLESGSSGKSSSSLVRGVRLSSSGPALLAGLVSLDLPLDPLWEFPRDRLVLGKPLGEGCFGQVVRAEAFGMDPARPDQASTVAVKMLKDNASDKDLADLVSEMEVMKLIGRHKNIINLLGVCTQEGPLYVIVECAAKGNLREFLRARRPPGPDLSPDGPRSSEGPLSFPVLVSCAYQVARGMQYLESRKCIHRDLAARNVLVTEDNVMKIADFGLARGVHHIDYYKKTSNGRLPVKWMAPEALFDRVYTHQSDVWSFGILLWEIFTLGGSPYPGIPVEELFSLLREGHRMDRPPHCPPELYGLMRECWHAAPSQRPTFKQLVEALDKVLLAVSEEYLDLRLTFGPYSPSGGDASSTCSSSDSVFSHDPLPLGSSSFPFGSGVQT
smiles,measurement,setting,value
C#CCOc1ccc(Nc2ncc(Cl)c(Nc3ccccc3NC(=O)C=C)n2)c(OC)c1 [Compound 6],inhibition at 1 µM,ERN2; 1 h,-1%
same,inhibition at 1 µM,ERN2; [3],-1%
same,Inhibition at 1 µM (%),SRC; [4],8%
same,inhibition at 1 µM,SRC; [5],9%
same,inhibition at 1 µM,"SRC; read-out: Inhibition at 1 µM (%), 1 µM, ZLYTE, ATP Km app",10%
same,inhibition at 1 µM,PLK1; [5],12%
same,Inhibition at 1 µM (%),"PLK1; PLK1, 1 µM, ZLYTE, ATP Km app, listed as WEL028, 1 µM",8%
same,inhibition at 1 µM,"PLK1; read-out: Inhibition at 1 µM (%), PLK1, 1 µM, ZLYTE, ATP Km app",15%
same,inhibition at 1 µM,FGFR4; [5],34%
same,Inhibition at 1 µM (%),"FGFR4; FGFR4, 1 µM, ZLYTE, ATP Km app, listed as WEL028, 1 µM",38%
same,inhibition at 1 µM,"FGFR4; read-out: Inhibition at 1 µM (%), FGFR4, 1 µM, ZLYTE, ATP Km app",31%
same,inhibition at 1 µM,PRKCQ (PKC theta),8%
same,Inhibition (%),"CSNK1G1 (CK1 gamma 1); 1 μM WEL028, 1 h preincubation",4%
same,Inhibition at 1 µM (%),CSNK1G1 (CK1 gamma 1),2%
same,Inhibition at 1 µM (%),"CSNK1G1 (CK1 gamma 1); listed as WEL028, 1 µM",7%
same,inhibition at 1 µM,MAP3K10 (MLK2); [5],4%
same,Inhibition at 1 µM (%),"MAP3K10 (MLK2); MAP3K10 (MLK2), 1 µM, LanthaScreen Binding, listed as WEL028, 1 µM",5%
same,inhibition at 1 µM,"MAP3K10 (MLK2); read-out: Inhibition at 1 µM (%), MAP3K10 (MLK2), 1 µM, LanthaScreen Binding",4%
same,inhibition at 1 µM,ADRBK1 (GRK2); [5],4%
same,Inhibition at 1 µM (%),ADRBK1 (GRK2),2%
same,Inhibition at 1 µM (%),"ADRBK1 (GRK2); listed as WEL028, 1 µM",6%
same,Inhibition at 1 µM (%),"SLK; 1 µM, LanthaScreen Binding, listed as WEL028, 1 µM",1% and 7%
same,inhibition at 1 µM,SLK; [5],4%
same,inhibition at 1 µM,AAK1; [5],33%
same,Inhibition at 1 µM (%),"AAK1; AAK1, 1 µM, LanthaScreen Binding, listed as WEL028, 1 µM",30%
same,inhibition at 1 µM,"AAK1; read-out: Inhibition at 1 µM (%), AAK1, 1 µM, LanthaScreen Binding",35%
same,Inhibition at 1 µM (%),ROCK1; [4],-6% and 0%
same,inhibition at 1 µM,ROCK1; [5],-3%
same,inhibition at 1 µM,CAMK1G (CAMKI gamma); [5],2%
same,Inhibition at 1 µM (%),CAMK1G (CAMKI gamma),3%
same,Inhibition at 1 µM (%),"CAMK1G (CAMKI gamma); listed as WEL028, 1 µM",1%
same,inhibition at 1 µM,EPHA8; 1 h,-7%
same,inhibition at 1 µM,EPHA8; [3],-7%
same,inhibition at 1 µM,GRK1; [5],8%
same,Inhibition at 1 µM (%),"GRK1; GRK1, 1 µM, LanthaScreen Binding, listed as WEL028, 1 µM",7%
same,inhibition at 1 µM,"GRK1; read-out: Inhibition at 1 µM (%), GRK1, 1 µM, LanthaScreen Binding",9%
same,inhibition at 1 µM,[1]; [5],2%
same,Inhibition at 1 µM (%),"[1]; PIK3CB/PIK3R2 (p110 beta/p85 beta), 1 µM, Adapta, ATP 10, listed as WEL028, 1 µM",4% and -1%
same,Formazan-positive cells (%),"[2]; 100 nM, Supplementary Figure 12f, individual replicates, listed as WEL028",79.976% and 78.7671% and 73.0614%
same,Percentage of formazan-positive cells,[2]; WEL028 prior to PMA stimulation,did not affect
